In ChEMBL document CHEMBL1140359, “Solid-phase synthesis and anti-infective activity of a combinatorial library based on the natural product anisomycin” (Bioorg Med Chem Lett, 2005) one finds inhibition, IC50 and MIC data, which are given here for 10 molecules.

As usually defined, the inhibition is the share of the control response that was lost under treatment. Low values mean little suppression, high ones strong suppression. What is called IC50 is the concentration that gives 50% inhibition. A low value points to greater potency. The MIC is the lowest concentration that inhibits growth of the organism. Low readings indicate inhibition by little substance, high ones a need for much substance.

The test system of assay [1] is Candida albicans. Kind of assay: Percent inhibition against efflux-deficient strain of Candida albicans at 15.5 uM. The format is functional.
In assay [2] the test system is Candida albicans. Kind of assay: Percent inhibition against RG-1 mutant strain of Candida albicans at 15.5 uM. Type of assay: functional.
For assay [3], the system named is HEK293. Kind of assay: Inhibitory concentration required to produce cytotoxicity against HEK293 cells. As to conditions: Homo sapiens. Type of assay: functional, cell-based.
Assay [4] relates to Staphylococcus aureus. As to the kind of experiment: Minimum inhibitory concentration against Staphylococcus aureus. The format is functional.
Assay [5] has as its system Staphylococcus aureus. Kind of assay: Percent inhibition against MraY/MurG in Staphylococcus aureus cell walls at 25 uM. Type of assay: functional.
The subject of assay [6] is Staphylococcus aureus. As to the kind of experiment: Percent inhibition against MurPath in Staphylococcus aureus cell walls at the concentration of 25 uM. Type of assay: functional.

Molecules are shown by their SMILES. Values after ≈ are worked out from the molar mass of the structure shown.

Take `COc1ccc(C[C@@H]2[C@H](OC(=O)NCc3ccccc3F)[C@@H](O)CN2C(=O)c2cc(C(F)(F)F)cc(C(F)(F)F)c2)cc1`: the inhibition at 15.5 µM is 87% in assay [1] and less than 5% in assay [2]. The molecule further displayed an IC50 in assay [3] of 10 µM.
The molecule `COc1ccc(C[C@H]2NC[C@H](O)[C@H]2OC(C)=O)cc1` [ANISOMYCIN] gave an inhibition at 15.5 µM in assay [1] of more than 99%. In addition, in assay [4], the minimal inhibitory concentration (MIC) is more than 32 µg/mL. This molecule showed an IC50 in assay [3] of 0.02 µM.
For the molecule `COc1ccc(C[C@@H]2[C@H](OC(=O)N[C@@H]3CCN(Cc4ccccc4)C3)[C@@H](O)CN2C(=O)Nc2ccc(-c3ccccc3)cc2)cc1`, the inhibition at 25 µM is 20% in assay [5] and less than 5% in assay [6]. Moreover, inhibition of growth in assay [4] (MIC) required 16 µg/mL (≈ 25.8 µM). In assay [3], the IC50 was 2 µM.
Regarding `COc1ccc(C[C@@H]2[C@H](OC(=O)NCc3ccc(F)cc3)[C@@H](O)CN2C(=O)c2cc(C(F)(F)F)cc(C(F)(F)F)c2)cc1`, the figures for the inhibition at 15.5 µM in assay [1] and in assay [2] were 87% and less than 5%, respectively. This molecule returned an IC50 in assay [3] of 8 µM.
With `COc1ccc(C[C@@H]2[C@H](OC(=O)N3CCN(C)CC3)[C@@H](O)CN2C(=O)c2cc(-c3ccc(Cl)cc3)oc2C(F)(F)F)cc1`, the inhibition at 25 µM in assay [5] was 10%; in assay [6], less than 5%. Further, the MIC in assay [4] came to 32 µg/mL (≈ 51.4 µM). This molecule had an IC50 in assay [3] of 10 µM.
Take `COc1ccc(C[C@@H]2[C@H](OC(=O)NCc3ccccc3-c3ccccc3)[C@@H](O)CN2C(=O)OCC(C)C)cc1`: the inhibition at 15.5 µM in assay [1] was 82%; in assay [2], less than 5%. The molecule also came in with an IC50 in assay [3] of 11 µM.
On to `CCCOC(=O)N1C[C@H](O)[C@@H](OC(=O)NCc2ccccc2-c2ccccc2)[C@H]1Cc1ccc(OC)cc1`, for which the values for the inhibition at 15.5 µM in assay [1] and in assay [2] were 96% and 10%, respectively. In assay [3], this molecule displayed an IC50 of 9 µM.
On the same counts, the results for `CCOC(=O)N1C[C@H](O)[C@@H](OC(=O)NCc2ccccc2-c2ccccc2)[C@H]1Cc1ccc(OC)cc1` are 83%, 14% and 22 µM.
For the molecule `COc1ccc(C[C@@H]2[C@H](OC(=O)NC3CCN(Cc4ccccc4)CC3)[C@@H](O)CN2C(=O)c2cc(-c3ccc(Cl)cc3)oc2C(F)(F)F)cc1`, the inhibition at 25 µM in assay [5] and in assay [6] was less than 5% in each case. In assay [4], this molecule yielded an MIC of 16 µg/mL (≈ 22.5 µM). Moreover, the IC50 in assay [3] is 8 µM.
Take `COc1ccc(C[C@@H]2[C@H](OC(=O)NCc3ccccc3)[C@@H](O)CN2C(=O)c2cc(C(F)(F)F)cc(C(F)(F)F)c2)cc1`: the inhibition at 15.5 µM was determined as 87% in assay [1] and 8% in assay [2]. Further, the IC50 in assay [3] turned out to be 16 µM.
